According to patent US20220324835A1 (Nurix Therapeutics, Inc., priority 2018, published 2022):

How the values were obtained:
Cbl-b [1] = molecular target: T1, Cbl-b (Homo sapiens, UniProt Q13191); experiment: Cbl-b inhibition assay (Cbl-b activity assay, FRET, Biological Example 1; 100 mM NaCl, 60 nM Src kinase); format: biochemical; conditions: upper bound stated in text lists; read-out: IC50 values in the Cbl-b inhibition assay of Biological Example 1
Method in brief: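 Inhibition is read as loss of FRET signal. The signal arises when Src-phosphorylated, N-terminal biotinylated Avi-Cbl-b (captured by streptavidin-terbium) binds UbcH5B carrying covalently linked Bodipy-Fluorescein-tagged ubiquitin.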

Cbl-b [2] = molecular target: T1, Cbl-b; experiment: Cbl-b activity assay (Cbl-b inhibition assay), TR-FRET of Cbl-b interaction with UbcH5B-Ub; format: biochemical; conditions: assay buffer with 100 mM NaCl, 60 nM Src kinase; read-out: Cbl-b activity IC50
Method in brief: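 TR-FRET readout of Cbl-b binding to Bodipy-fluorescein N-terminally labeled Ub conjugated to UbcH5B C85K, measured with compound present. After compound incubation, 60 nM Src kinase with 1 mM ATP and 5 mM MgCl2 (final) was added for 1.5 h, then a further 1 h incubation; asterisked values used 50 mM NaCl buffer and 30 nM Src.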

T1 sequence (Q13191 36-427): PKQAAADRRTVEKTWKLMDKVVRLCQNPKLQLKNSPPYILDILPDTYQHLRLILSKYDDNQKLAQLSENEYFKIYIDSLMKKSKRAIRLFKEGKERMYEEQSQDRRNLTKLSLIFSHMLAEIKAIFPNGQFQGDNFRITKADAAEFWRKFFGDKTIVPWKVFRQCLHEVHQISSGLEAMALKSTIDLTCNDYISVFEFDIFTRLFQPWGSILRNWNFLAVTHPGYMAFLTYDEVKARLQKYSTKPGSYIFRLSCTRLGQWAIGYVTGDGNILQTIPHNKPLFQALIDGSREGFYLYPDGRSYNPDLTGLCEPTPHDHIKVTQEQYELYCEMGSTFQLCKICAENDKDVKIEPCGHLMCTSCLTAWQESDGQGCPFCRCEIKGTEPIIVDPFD

Structure (SMILES) | IC50 (Cbl-b [1]) | IC50 (Cbl-b [2])
CC(Sc1nncn1C)c1cc(NC(=O)c2ccc3ccccc3n2)c2c(c1)C(C)(O)CC2 (stereo not shown) [Compound 131, N-(1-hydroxy-1-methyl-6-(1-(4-methyl-4H-1,2,4-triazol-3-ylthio)ethyl)-2,3-dihydro-1H-inden-4-yl)quinoline-2-carboxamide] | ≤ 10000 nM | 3000 to 10000 nM
Cn1cnnc1CC1(c2cccc(N3Cc4c(cc(CN5CCC(F)(F)C(O)C5)cc4C(F)(F)F)C3=O)c2)COC1 (stereo not shown) [Example 647, 6-((4,4-difluoro-3-hydroxypiperidin-1-yl)methyl)-2-(3-(3-((4-methyl-4H-1,2,4-triazol-3-yl)methyl)oxetan-3-yl)phenyl)-4-(trifluoromethyl)isoindolin-1-one] | ≤ 100 nM | < 100 nM
CC(Cc1nccn1C)c1cccc(N2Cc3c(cccc3C(F)(F)F)C2=O)c1 (stereo not shown) [Compound 267, 2-(3-(1-(1-methyl-1H-imidazol-2-yl)propan-2-yl)phenyl)-4-(trifluoromethyl)isoindolin-1-one] | ≤ 10000 nM | 3000 to 10000 nM
COC[C@@H]1CN(Cc2cc3c(c(C(F)(F)F)c2)CN(c2cccc(C4(Cc5nncn5C)COC4)c2)C3=O)CCO1 [Example 667, (S)-6-((2-(methoxymethyl)morpholino)methyl)-2-(3-(3-((4-methyl-4H-1,2,4-triazol-3-yl)methyl)oxetan-3-yl)phenyl)-4-(trifluoromethyl)isoindolin-1-one] | ≤ 100 nM | < 100 nM
Cn1cnnc1CC1(c2cccc(N3Cc4c(cc(CN5CC[C@@H]6NCCO[C@@H]6C5)cc4C(F)(F)F)C3=O)c2)COC1 (relative stereo) [Example 713, rel-6-[(4aR,8aS)-octahydropyrido[3,4-b][1,4]oxazin-6-ylmethyl]-2-(3-{3-[(4-methyl-1,2,4-triazol-3-yl)methyl]oxetan-3-yl}phenyl)-4-(trifluoromethyl)-3H-isoindol-1-one] | ≤ 100 nM | < 100 nM
CNC(=O)c1ccc2c(c1)C(=O)N(c1cc(C(C)Sc3nncn3C)ccn1)C2 (stereo not shown) [Compound 173, N-methyl-2-(4-[1-[(4-methyl-4H-1,2,4-triazol-3-yl)sulfanyl]ethyl]pyridin-2-yl)-3-oxo-2,3-dihydro-1H-isoindole-5-carboxamide] | ≤ 10000 nM | 3000 to 10000 nM
C[C@H](Sc1nncn1C)c1cccc(NC(=O)c2cc(C(=O)N3CCC(S(C)(=O)=O)C3)ccn2)c1 (stereo partly shown) [Compound 158, N-(3-((A)-1-((4-methyl-4H-1,2,4-triazol-3-yl)thio)ethyl)phenyl)-4-(3-(methylsulfonyl)pyrrolidine-1-carbonyl)picolinamide] | ≤ 10000 nM | 3000 to 10000 nM
Cc1cc(C(=O)Nc2cccc(C3(Cc4nncn4C(F)F)COC3)c2)nc(C2CC2)n1 [Example 704, 2-cyclopropyl-N-(3-(3-((4-(difluoromethyl)-4H-1,2,4-triazol-3-yl)methyl)-oxetan-3-yl)phenyl)-6-methylpyrimidine-4-carboxamide] | ≤ 100 nM | < 100 nM
C[C@H](Sc1nncn1C)c1ccnc(NC(=O)c2csc(C(F)(F)F)n2)c1 [Compound 118, N-[4-[(1S)-1-[(4-methyl-1,2,4-triazol-3-yl)sulfanyl]ethyl]-2-pyridyl]-2-(trifluoromethyl)thiazole-4-carboxamide] | ≤ 10000 nM | 1000 to 3000 nM
Cn1cnnc1CC1(c2cccc(N3Cc4c(cc(CN5CCOC(C6CCC6)C5)cc4C(F)(F)F)C3=O)c2)COC1 (stereo not shown) [Example 719, 6-[(2-cyclobutylmorpholin-4-yl)methyl]-2-(3-{3-[(4-methyl-1,2,4-triazol-3-yl)methyl]oxetan-3-yl}phenyl)-4-(trifluoromethyl)-3H-isoindol-1-one] | ≤ 100 nM | < 100 nM
CC(Sc1nncn1C)c1cccc(N2Cc3ccc(C(C)(C)O)cc3C2=O)c1 (stereo not shown) [Compound 165, 6-(1-hydroxy-1-methyl-ethyl)-2-[3-[1-[(4-methyl-1,2,4-triazol-3-yl)sulfanyl]ethyl]phenyl]isoindolin-1-one] | ≤ 10000 nM | 3000 to 10000 nM
Cn1cnnc1CC1(c2cccc(N3Cc4c(cc(CN5CCc6cc(C#N)ccc6C5)cc4C(F)(F)F)C3=O)c2)COC1 [Example 706, 2-((2-(3-(3-((4-methyl-4H-1,2,4-triazol-3-yl)methyl)oxetan-3-yl)phenyl)-3-oxo-7-(trifluoromethyl)isoindolin-5-yl)methyl)-1,2,3,4-tetrahydroisoquinoline-6-carbonitrile] | ≤ 100 nM | < 100 nM
Cn1cnnc1CC1(c2cccc(N3Cc4c(cc(CN5CCc6cnccc6C5)cc4C(F)(F)F)C3=O)c2)COC1 [Example 648, 6-((3,4-dihydro-2,6-naphthyridin-2(1H)-yl)methyl)-2-(3-(3-((4-methyl-4H-1,2,4-triazol-3-yl)methyl)oxetan-3-yl)phenyl)-4-(trifluoromethyl)isoindolin-1-one] | ≤ 100 nM | < 100 nM
Cn1cnnc1CC1(c2cccc(N3Cc4c(cc(CN5Cc6cccc(Cl)c6C5)cc4C(F)(F)F)C3=O)c2)COC1 [Example 657, 6-((4-chloroisoindolin-2-yl)methyl)-2-(3-(3-((4-methyl-4H-1,2,4-triazol-3-yl)methyl)oxetan-3-yl)phenyl)-4-(trifluoromethyl)isoindolin-1-one] | ≤ 100 nM | < 100 nM
Cn1cnnc1CC1(c2cccc(N3Cc4c(cc(CN5CCN6C(=O)CCC6C5)cc4C(F)(F)F)C3=O)c2)COC1 (stereo not shown) [Example 711, 2-((2-(3-(3-((4-methyl-4H-1,2,4-triazol-3-yl)methyl)oxetan-3-yl)phenyl)-3-oxo-7-(trifluoromethyl)isoindolin-5-yl)methyl)hexahydropyrrolo[1,2-a]pyrazin-6(2H)-one] | ≤ 100 nM | < 100 nM
C[C@H](Cc1nncn1C)c1cccc(NC(=O)c2cc(C(=O)N3CC[C@@](C)(N)C3)ccn2)c1 [Compound 230, 4-((R)-3-amino-3-methylpyrrolidine-1-carbonyl)-N-(3-((R)-1-(4-methyl-4H-1,2,4-triazol-3-yl)propan-2-yl)phenyl)picolinamide 2,2,2-trifluoroacetate] | ≤ 10000 nM | 3000 to 10000 nM
Cn1cnnc1C[C@H](c1cccc(N2Cc3c(cccc3C(F)(F)F)C2=O)c1)C(F)F [Example 617, (R)-2-(3-(1,1-difluoro-3-(4-methyl-4H-1,2,4-triazol-3-yl)propan-2-yl)phenyl)-4-(trifluoromethyl)isoindolin-1-one] | ≤ 300 nM | 100 to 300 nM
CCOC(Cc1nncn1C)c1cccc(N2Cc3c(cccc3C(F)(F)F)C2=O)c1 (stereo not shown) [Compound 291, 2-(3-(1-ethoxy-2-(4-methyl-4H-1,2,4-triazol-3-yl)ethyl)phenyl)-4-(trifluoromethyl)isoindolin-1-one] | ≤ 10000 nM | 3000 to 10000 nM
C[C@H](Sc1nncn1C)c1ccnc(NC(=O)c2cc(Br)cc(C(F)(F)F)n2)c1 [Compound 119, 4-bromo-N-[4-[(1S)-1-[(4-methyl-1,2,4-triazol-3-yl)sulfanyl]ethyl]-2-pyridyl]-6-(trifluoromethyl)pyridine-2-carboxamide] | ≤ 1000 nM | 301 to 1000 nM
Cc1cc(C(=O)Nc2cccc(C3(Cc4[nH]ncc4C)COC3)c2)nc(C2CC2)n1 [Compound 510, 2-cyclopropyl-6-methyl-N-(3-{3-[(4-methyl-1H-pyrazol-3-yl)methyl]oxetan-3-yl}phenyl)pyrimidine-4-carboxamide] | ≤ 100 nM | < 100 nM
C[C@H]1CCN(Cc2cc3c(c(C(F)(F)F)c2)CN(c2cccc(C4(Cc5nncn5C)COC4)c2)C3=O)C[C@H]1F [Example 639b, 6-(((3S,4S)-3-fluoro-4-methylpiperidin-1-yl)methyl)-2-(3-(3-((4-methyl-4H-1,2,4-triazol-3-yl)methyl)oxetan-3-yl)phenyl)-4-(trifluoromethyl)isoindolin-1-one] | ≤ 100 nM | < 100 nM
Cn1cnnc1CC1(c2cccc(N3Cc4c(cc(CN5CCOC(CCF)C5)cc4C(F)(F)F)C3=O)c2)COC1 (stereo not shown) [Compound 521, 6-{[2-(2-fluoroethyl)morpholin-4-yl]methyl}-2-(3-{3-[(4-methyl-1,2,4-triazol-3-yl)methyl]oxetan-3-yl}phenyl)-4-(trifluoromethyl)-3H-isoindol-1-one] | ≤ 100 nM | < 100 nM
Cn1cnnc1CC1(c2cccc(N3Cc4c(cc(CN5CCOC(C(F)F)C5)cc4C(F)(F)F)C3=O)c2)COC1 (stereo not shown) [Example 630, 6-{[2-(difluoromethyl)morpholin-4-yl]methyl}-2-(3-{3-[(4-methyl-1,2,4-triazol-3-yl)methyl]oxetan-3-yl}phenyl)-4-(trifluoromethyl)-3H-isoindol-1-one] | ≤ 100 nM | < 100 nM
